Assay results as given in patent US6825230B2, “Spiro and dispiro 1,2,4-trixolane antimalarials” (Medicines for Malaria Venture MMV, priority 2002, dated 2004).
≈ marks a conversion by molar mass, not a printed value. Like-named read-outs stand apart in the source and are kept apart here.

How the values were obtained:
[1] = test system: ANKA strain of P. berghei; assay: Single dose STI in vivo screen in infected mice; design: species or system Plasmodium berghei; details: for Survival (days) 10 mg/kg po: single 10 mg/kg po in 3% ethanol and 7% Tween 80; for Survival (days) 10 mg/kg po / Survival (days) 10 mg/kg SSV po / Survival (days) 10 mg/kg sc: untreated 6-7 days; for Activity (%) 10 mg/kg po: single 10 mg/kg po in 3% ethanol and 7% Tween 80 on day 1 post-infection; for Activity (%) 10 mg/kg po / Activity (%) 10 mg/kg SSV po / Activity (%) 10 mg/kg sc: percent reduction in parasitemia on day 3; for Survival (days) 10 mg/kg SSV po: single 10 mg/kg po in SSV; for Activity (%) 10 mg/kg SSV po: single 10 mg/kg po in standard suspending vehicle (SSV) on day 1 post-infection; for Survival (days) 10 mg/kg sc: single 10 mg/kg sc in 3% ethanol and 7% Tween 80; for Activity (%) 10 mg/kg sc: single 10 mg/kg sc in 3% ethanol and 7% Tween 80 on day 1 post-infection
[2] = test system: chloroquine-resistant K1 strain of P. falciparum; assay: In vitro antimalarial semiautomated microdilution assay ([3H]-hypoxanthine incorporation), K1 strain; format: cell-based, Plasmodium falciparum; details: Plasmodium falciparum
Method: (§1) Various OZ compounds were tested by the semiautomated microdilution assay against intraerythrocytic forms of Plasmodium falciparum derived from asynchronous stock cultures.
(§2) Fifty percent inhibitory concentration (IC50) were estimated by Logit regression analysis.

[3] = test system: chloroquine-sensitive NF54 strain of P. falciparum; assay: In vitro antimalarial semiautomated microdilution assay ([3H]-hypoxanthine incorporation), NF54 strain; format: cell-based, Plasmodium falciparum; details: Plasmodium falciparum
Method: as §1, §2

[4] = K1, 72 h, read-out: IC50 (ng/ml) K1, chloroquine-resistant K1 strain, 72 h incubation
[5] = NF54, 72 h, read-out: IC50 (ng/ml) NF54, chloroquine-sensitive NF54 strain, 72 h incubation
[6] = chloroquine-resistant K1 strain, 72 h incubation, read-out: IC50 (ng/ml) K1
[7] = chloroquine-sensitive NF54 strain, 72 h incubation, read-out: IC50 (ng/ml) NF54

Structure (SMILES)	Survival (days) 10 mg/kg po [1] [days]	Activity (%) 10 mg/kg po [1] [%]	Survival (days) 10 mg/kg SSV po [1] [days]	Activity (%) 10 mg/kg SSV po [1] [%]	Survival (days) 10 mg/kg sc [1] [days]	Activity (%) 10 mg/kg sc [1] [%]	IC50 [2, 4] [ng/mL]	IC50 [3, 5] [ng/mL]	IC50 [2, 6] [ng/mL]	IC50 [3, 7] [ng/mL]
CCOC(=O)N1C2CCC1CC1(C2)OOC2(O1)C1CC3CC(C1)CC2C3 (centres unmarked) [OZ110, Adamantane-2-spiro-3′-1′,2′,4′-trioxolane-5′-spiro-3″-8″-ethoxycarbonyl-8″-azabicyclo[3.2.1]octane]	6.7	50	5.3	0	7.7	97.97	5.3 (≈ 14.6 nM)	2.1 (≈ 5.78 nM)		
O=C(O)COCC(=O)N1CCC2(CC1)OOC1(O2)C2CC3CC(C2)CC1C3 (centres unmarked) [OZ112, Adamantane-2-spiro-3′-8′-[(carboxymethoxy)acetyl]-1′,2′,4′-trioxa-8′-azaspiro[4.5]decane]	5.7	6	5.7	0	6.3	36	> 10	> 10		
O=S(=O)(c1cccc2cccnc12)N1CCC2(CC1)OOC1(O2)C2CC3CC(C2)CC1C3 (centres unmarked) [OZ114, Adamantane-2-spiro-3′-8′-(8′-quinolinesulfonyl)-1′,2′,4′-trioxa-8′-azaspiro[4.5]decane]	5.7	0	6.0	0	8.7	99.64	3.7 (≈ 8.1 nM)	2.2 (≈ 4.82 nM)		
CCCCCCCCS(=O)(=O)N1CCC2(CC1)OOC1(O2)C2CC3CC(C2)CC1C3 (centres unmarked) [OZ115, Adamantane-2-spiro-3′-8′-(1′-octanesulfonyl)-1′,2′,4′-trioxa-8′-azaspiro[4.5]decane]	6.3	33	5.7	0	7.3	97	11 (≈ 24.9 nM)	6.9 (≈ 15.6 nM)		
O=C(NO)[C@H]1CC[C@]2(CC1)OOC1(O2)C2CC3CC(C2)CC1C3 (some centres unmarked) [OZ116]	7.7	97	8.3	96	8.0	96	4.2 (≈ 13 nM)	3.3 (≈ 10.2 nM)		
NCC1(c2ccccc2)CCC2(CC1)OOC1(O2)C2CC3CC(C2)CC1C3 (centres unmarked) [OZ117]	7.0	95	7.7	96	8.7	99.94	2.1 (≈ 5.68 nM)	1.2 (≈ 3.25 nM)		
CC(=O)OC[C@H]1CC[C@]2(CC1)OOC1(O2)C2CC3CC(C2)CC1C3 (some centres unmarked) [OZ118]	7.0	99.0	8.0	98	8.3	99.57			1 (≈ 2.97 nM)	0.24 (≈ 0.713 nM)
CCOC(=O)C1(C(=O)OCC)COC2(CCC3(CC2)OOC2(O3)C3CC4CC(C3)CC2C4)OC1 (centres unmarked) [OZ120, Adamantane-2-spiro-3′-11′,11′-bis(ethoxycarbonyl)-1′,2′,4′,9′,13′-pentaoxadispiro[4.2.5.2]pentadecane]	6.0	33	5.7	8	8.0	96			1.2 (≈ 2.5 nM)	0.59 (≈ 1.23 nM)
OCC1(CO)COC2(CCC3(CC2)OOC2(O3)C3CC4CC(C3)CC2C4)OC1 (centres unmarked) [OZ121, Adamantane-2-spiro-3′-11′,11′-bis(hydroxymethyl)-1′,2′,4′,9′,13′-pentaoxadispiro[4.2.5.2]pentadecane]	7.3	91	8.0	98	7.3	99.61	0.96 (≈ 2.42 nM)	0.41 (≈ 1.03 nM)		
O=C(O)C1(C(=O)O)COC2(CCC3(CC2)OOC2(O3)C3CC4CC(C3)CC2C4)OC1 (centres unmarked) [OZ122, Adamantane-2-spiro-3′-11′,11′-dicarboxy-1′,2′,4′,9′,13′-pentaoxadispiro[4.2.5.2]pentadecane]	5.7	10	5.3	3	5.0	0			> 100	> 100
BrC[C@H]1CC[C@]2(CC1)OOC1(O2)C2CC3CC(C2)CC1C3 (some centres unmarked) [OZ123]	8.0	99.66	7.0	94	16	99.96			1.6 (≈ 4.48 nM)	1.9 (≈ 5.32 nM)
N#Cc1ccc(C2(c3ccccc3)OOC3(O2)C2CC4CC(C2)CC3C4)cc1 (centres unmarked) [OZ124]	6.3	72	5.3	17	7.0	86			2.1 (≈ 5.62 nM)	1.7 (≈ 4.55 nM)
CCOC(=O)c1ccc(C2(c3ccc(C(=O)OCC)cc3)OOC3(O2)C2CC4CC(C2)CC3C4)cc1 (centres unmarked) [OZ125, Adamantane-2-spiro-3′-5′,5′-bis[4′-(ethoxycarbonyl)phenyl]-1′,2′,4′-trioxolane]	5.3	8	5.7	0	6.0	0			68 (≈ 138 nM)	> 100
C=C1COC2(CCC3(CC2)OOC2(O3)C3CC4CC(C3)CC2C4)OC1 (centres unmarked) [OZ128, Adamantane-2-spiro-3′-11′-methylene-1′,2′,4′,9′,13′-pentaoxadispiro[4.2.5.2]pentadecane]	8.3	99.93	8.7	99.95	11.7	99.98	0.59 (≈ 1.69 nM)	1.1 (≈ 3.16 nM)		
CC(C)(CO)NC(=O)[C@H]1CC[C@]2(CC1)OOC1(O2)C2CC3CC(C2)CC1C3 (some centres unmarked) [OZ129]	5.3	0	5.7	4	5.7	0	10 (≈ 26.4 nM)	> 10		
O=S(=O)(Cc1ccccc1)N1CCC2(CC1)OOC1(O2)C2CC3CC(C2)CC1C3 (centres unmarked) [OZ131, Adamantane-2-spiro-3′-8′-phenylmethanesulfonyl-1′,2′,4′-trioxa-8′-azaspiro[4.5]decane]	5.7	21	6.0	41	8.0	90	1.7 (≈ 4.05 nM)	4.1 (≈ 9.77 nM)		
